Results taken from the METLIN SMRT retention time set (Domingo-Almenara et al. 2019).

Assay: gradient 5% acetonitrile 3 min, to 50% in 2 min, to 85% in 15 min, held 3 min, 100 µL/min
Details: column: Zorbax Extend-C18 2.1 x 50 mm; eluents: water / acetonitrile, 0.1% formic acid
In short: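 Pure standards were analyzed in mixtures of ~100 molecules using HPLC coupled to a quadrupole time-of-flight mass spectrometer, in both positive and negative ionization mode. Separation used a Zorbax Extend-C18 column (2.1 × 50 mm, 1.8 μm) at 100 μL/min, with water and acetonitrile each containing 0.1% formic acid. Dead and dwell volumes were 40 μL and 900 μL, and data were collected over 3 months. Retention time was read from computationally picked adduct peaks, each inspected manually.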

| RP-LC retention time [s] | Structure (SMILES) |
| --- | --- |
| 837 | CCn1c(=O)c2cc(C(=O)Nc3ccc(OC)c(OC)c3)nn2c2ccccc21 |
| 726 | Cn1c(=O)n(C)c2cc(NS(=O)(=O)c3ccc(F)cc3)c(Cl)cc21 |
| 1310 | CCc1ccc(OCc2nc(C)c(C(=O)Nc3nc(-c4ccccc4OC)cs3)s2)cc1 |
| 728 | COc1ccc(CNC(=O)C2(c3ccc(NC(C)=O)cc3)CCC2)cc1 |
| 917 | CCn1nnc2c(SCc3cc(OC)cc(OC)c3)ncnc21 |
| 840 | COc1ccc(-c2cc3c4nn(CC(=O)Nc5cccc(C)c5C)c(=O)n4ccn3n2)cc1 |
| 713 | Cc1ccc2nc(Nc3nc(C)cc(C(F)(F)F)n3)nc(C)c2c1 |
| 1060 | Cc1nc(C)c(C(=O)Nc2nc(-c3ccc(C)c(C)c3)cs2)s1 |
| 931 | CCOc1ccccc1NC(=O)C1CCN(S(=O)(=O)c2ccc3c(c2)sc(=O)n3C)CC1 |
| 756 | CC(C)CC(=O)Nc1ccc(-n2cnc(C(=O)N3CCCC(C)C3)c2)nc1 (centres undefined) |
| 998 | O=C(Cn1c(=O)n(C2CCCC2)c2ncccc21)Nc1ccc(Br)cc1 |
| 761 | CC1Oc2ccc(S(=O)(=O)N3CCC(C(=O)Nc4ccccc4F)CC3)cc2NC1=O (centres undefined) |
| 573 | Cc1noc([C@]23CN(CCc4ccccc4)CC[C@H]2CN(CCc2ccccc2)C3)n1 |
| 709 | CSc1ccc(CNC(=O)c2[nH]c3cc(C)sc3c2CN2CCOCC2)cc1 |
| 760 | CCNC(=O)C1CCN(c2cc(SCC(=O)Nc3ccccc3OCC)ncn2)CC1 |
| 854 | Cc1cccc(NC(=O)N2CCc3c(c(-c4nnc(-c5ccc(F)cc5)o4)nn3C)C2)c1C |
| 889 | COc1cc(-c2nnc(SCC(=O)N3CCCC(C)C3)o2)cc(OC)c1OC (centres undefined) |
| 976 | O=S(=O)(c1ccccc1F)N1CC(c2nc(Cc3ccccc3)no2)C1 |
| 1110 | CCOC(=O)C1C(=O)C=C(c2cccs2)CC1c1ccc(F)cc1 (centres undefined) |
| 731 | O=C(Nc1ccc2c(c1)N(C(=O)C1CCCO1)CC2)c1c(F)cccc1Cl (centres undefined) |
| 663 | Cc1ccc(CNC(=O)c2nc(-c3ccnc(N4CCCC4)c3)no2)o1 |
| 639 | Cc1cc(C(=O)NC(C)C)c2cc(F)ccc2n1 |

| RP-LC retention time [s] | Structure (SMILES) |
| --- | --- |
| 561 | Cc1ccc(C)c(CN2CCC(CNC(=O)c3c(C)oc4c3C3=NCCN3C=N4)CC2)c1 |
| 869 | COc1cccc(-n2ccc(=O)c(-c3nc(-c4ccccc4F)no3)n2)c1 |
| 1070 | O=C(NCCCc1ccccc1)c1nnc(-c2ccc(S(=O)(=O)N3CCCCC3)cc2)o1 |
| 876 | Cc1nn(-c2ccccc2)c(C)c1S(=O)(=O)N1CCC(C(=O)NCc2cccs2)CC1 |
| 966 | Cc1nc(-c2ccccc2)cc2nn(CC(=O)Nc3ccccc3Cl)c(=O)n12 |
| 1110 | O=c1c2ccccc2n(Cc2nc(-c3cccc(Cl)c3)no2)c(=O)n1CC1CCCO1 (centres undefined) |
| 1180 | Cc1ccccc1CSc1nnc(-c2ccccc2Cl)o1 |
| 938 | CCOC(=O)c1c(C)n(-c2ccc(N(C)C)cc2)c2ccc(OCC(N)=O)cc12 |
| 671 | COc1cc(NS(=O)(=O)c2cc3n(c2)CCN(C)C3=O)cc(OC)c1 |
| 773 | CC1Oc2ccc(-c3csc(NC(=O)c4cccnc4)n3)cc2N(C)C1=O (centres undefined) |
| 733 | COCCN1CCn2cc(S(=O)(=O)Nc3ccc(F)c(F)c3)cc2C1=O |
| 787 | COc1ccc(-c2nc(C3CC(=O)N(c4ccc(OC)c(OC)c4)C3)no2)cc1OC (centres undefined) |
| 701 | Cn1ncc2c(N3CCOCC3)nc(C(=O)NCc3ccccc3)nc21 |
| 588 | CN(C)C[C@@H]1CN(C)C[C@H]1NC(=O)NCc1ccc(OC(F)(F)F)cc1 |
| 897 | O=C(c1ccc(Cl)nc1)c1cccs1 |
| 889 | COc1ccc(-c2noc(Cc3nnc(-c4ccc(F)cc4)o3)n2)cc1OC |
| 864 | CCC(C)N(CC(=O)N(Cc1ccco1)CC1CCCO1)C(=O)c1ccc(F)cc1 (centres undefined) |
| 802 | CCOc1cc(=O)n2c(c1C(=O)Nc1cccc(Br)c1)CCCC2 |
| 679 | Clc1ccc(-c2noc(CN3CCN(c4ccccn4)CC3)n2)cc1 |
| 674 | CCCNC(=O)C1CCCN(c2ccc(SCC(=O)Nc3cccc(C)c3)nn2)C1 (centres undefined) |
| 1050 | O=C1CC(c2noc(CCc3ccccc3)n2)CN1c1ccc(F)c(Cl)c1 (centres undefined) |
| 700 | O=C(NC1CC1)[C@@H]1C[C@H](Oc2ccccc2)CN1C(=O)c1ccco1 |

| RP-LC retention time [s] | Structure (SMILES) |
| --- | --- |
| 812 | CCc1cc(=O)n(CC(=O)NCc2ccc(F)cc2F)c(N)n1 |
| 857 | Cc1cccc(Cn2cc(C(=O)O)c3ccccc3c2=O)c1 |
| 692 | Cc1ccc(CNC(=O)N2CCC(c3cc(N)on3)CC2)cc1 |
| 866 | CC(NC(=O)Cn1cc(C(=O)C2CC2)c2ccccc21)c1ccc2c(c1)OCCCO2 (centres undefined) |
| 785 | Cc1ccc(-c2nc3ncccn3c2NCc2ccccc2)cc1C |
| 774 | COc1ccccc1CCNC(=O)CCCn1cccc1 |
| 1290 | Cc1ccc(Sc2nccnc2N2CCCC(C(=O)Nc3ccc(C)c(C)c3)C2)cc1 (centres undefined) |
| 704 | COc1ccc(NC(=O)C2CCCN(c3nnc4ccccn34)C2)cc1C(F)(F)F (centres undefined) |
| 748 | O=C(CCn1c(N2CCCC2)nc2ccsc2c1=O)NCc1ccccc1F |
| 886 | COC(=O)c1sc2ccccc2c1NC(=O)c1cc(C)n(C)n1 |
| 900 | COC(=O)C1=CN(c2cccc(C(F)(F)F)c2)c2ccccc2S1(=O)=O |
| 569 | CCOC(=O)c1c(C)[nH]c(C(=O)N2CCC(CC(=O)NCCN(C)C)CC2)c1C |
| 1270 | O=C1CC(C(=O)N2CCc3ccccc32)CN1CCc1c[nH]c2ccc(F)cc12 (centres undefined) |
| 518 | CN(C)[C@@H]1CN(Cc2cccc(C#N)c2)C[C@H]1CO |
| 1040 | COc1cc(CNS(=O)(=O)c2cccc(-c3nc(-c4ccccc4)no3)c2)cc(OC)c1OC |
| 792 | O=C(Cn1nc2c3cc(-c4ccccc4)nn3ccn2c1=O)NCc1ccco1 |
| 1310 | Cc1ccc(C)c(-c2coc(-c3ccc(NC(=O)c4ccc(Br)o4)cc3)n2)c1 |
| 922 | O=C(c1cn2nc(Cl)ccc2n1)N1CCN(c2ccccc2Cl)CC1 |
| 588 | COc1ccc(C)cc1NC(=O)CN1C(=O)C(C)(C)c2cc(C)ccc21 |
| 712 | O=C(NCc1ccc(Cl)cc1)C1CCN(c2cnc(N3CCCC3)nc2)CC1 |
| 666 | Cc1cc(NC(=O)CN2CCc3[nH]c4c(C)ccc(C)c4c(=O)c3C2)ccc1F |
| 976 | Cc1ccc(NC(=O)CN2C(=O)CCCc3cc(S(=O)(=O)N4CCC(C)CC4)ccc32)cc1 |

| RP-LC retention time [s] | Structure (SMILES) |
| --- | --- |
| 610 | CNC(=O)c1cccc(Nc2c(-c3ccc(N(C)C)cc3)nc3cnccn23)c1 |
| 858 | Cc1cc(-c2nnc(C3CCC3)o2)c(C)n1CC(=O)NCc1ccccc1F |
| 825 | COc1ncc(C(=O)Nc2ccc(F)c(Cl)c2)c(C)n1 |
| 627 | Cn1c(SCc2ccc([N+](=O)[O-])cc2)nnc1-c1cccnc1 |
| 554 | CCOC(=O)c1c(C)[nH]c(CCC(=O)NCCN2CCCC2)c1C |
| 838 | Cc1scc2nc(C3CCC3)nc(N3CCC(C(=O)N4CCN(c5ccccc5F)CC4)CC3)c12 |
| 1290 | COc1ccc(N2CCN(c3ncccc3-c3nc(-c4ccccc4)no3)CC2)cc1 |
| 657 | O=C(c1ccc2nsnc2c1)N1CCN(S(=O)(=O)C2CC2)CC1 |
| 822 | O=C(NCc1csc(-c2ccccc2)n1)C1CCN(C(=O)Nc2ccccc2Cl)CC1 |
| 920 | COc1cc(NC(=O)N2CCC3(CC2)Nc2ccccc2-n2cccc23)cc(OC)c1OC |
| 730 | O=S(=O)(c1ccc(Cl)cc1)N1CCC2(CC1)NCCN=C2NCc1ccccc1F |
| 794 | COC(=O)CNC(=O)C1COc2ccc(NC(=O)c3ccc(Cl)cc3)cc2C1 (centres undefined) |
| 644 | CCN1CCN(CCNC(=O)c2cc(-c3ccc(Cl)cc3)cn2C)CC1 |
| 698 | COc1ccc(C(=O)N2CCC3(CC2)NC(=O)c2ccc(F)cc2N3C)cc1OC |
| 580 | NCCc1noc(-c2ccccc2)n1 |
| 817 | O=C(Nc1ncnc2c1CCC2)c1ccc(S(=O)(=O)N2CCCc3ccccc32)cc1 |
| 984 | CC(C)CCNC(=O)c1nn(-c2ccc(F)cc2)nc1CO |
| 747 | COC(=O)c1ncn2c1C(=O)N(c1cc(C)cc(C)c1)C(C)(C(=O)NCc1ccccc1)C2 (centres undefined) |
| 765 | NC(=O)c1cccc(-c2cc(Nc3ccc(OC(F)(F)F)cc3)ncn2)c1 |
| 545 | CCC(CC)CN1CCC(n2c(C)cnc2-c2cccnc2)C1 (centres undefined) |
| 764 | Cc1ccc(-c2nnc(-c3cccc(S(=O)(=O)NCC(=O)O)c3)o2)cc1 |

| Structure (SMILES) | RP-LC retention time [s] |
| --- | --- |
| O=C(C1CCN(c2cnc3nccnc3c2)CC1)N1CCC2(CC1)OCCO2 | 620 |
| CNC(=O)Oc1ccc2c(c1)[C@]1(C)CCN(C)C1N2C (some centres undefined) | 594 |
